According to US11028077B2, “Crystalline pharmaceutical and methods of preparation and use thereof” (NOVARTIS PHARMACEUTICALS CORPORATION, priority 2008, dated 2021):
Where two headings read alike, the source gives them in different places.

Columns and labels:
[1] = tested on: human mononuclear cells (PBMC) stimulated with staphylococcal enterotoxin B (SEB); assay: cells; format: cell-based
[2] = Single dose ocular and IV ADME study with [14C]-compound in rats, quantitative whole body autoradiography; format: in vivo, rat; settings: for excretion in feces, % of the administered radioactivity: 0 to 168 hours postdose
[3] = Rat ocular pharmacokinetics of [14C]-compound (ocular tissue levels); format: in vivo; settings: for Concentration, Aqueous humor: ocular dosing in rats
[4] = 0.5 hour postdose, topical ocular 1 mg/eye
[5] = 0.5 hour postdose, topical ocular 1 mg/eye, above upper limit of quantification
[6] = 8 hours postdose, topical ocular 1 mg/eye
[7] = 24 hours postdose, topical ocular 1 mg/eye
[8] = at 2 hours postdose vs 0.5 hour

## O=C(NC(Cc1cc(=O)[nH]c2ccccc12)C(=O)O)c1ccc(Cl)cc1 (stereo not drawn) [Rebamipide, reference compound]
[1]; read-out: EC50 Cytokine Release GM-CSF
  EC50: > 1000 µM
[1]; read-out: EC50 Cytokine Release IFNγ
  EC50: > 1000 µM
[1]; read-out: EC50 Cytokine Release IL-1α
  EC50: > 1000 µM
[1]; read-out: EC50 Cytokine Release IL-1β
  EC50: > 1000 µM
[1]; read-out: EC50 Cytokine Release IL-2
  EC50: > 1000 µM
[1]; read-out: EC50 Cytokine Release IL-3
  EC50: > 1000 µM
[1]; read-out: EC50 Cytokine Release IL-4
  EC50: > 1000 µM
[1]; read-out: EC50 Cytokine Release IL-5
  EC50: > 1000 µM
[1]; read-out: EC50 Cytokine Release IL-6
  EC50: > 1000 µM
[1]; read-out: EC50 Cytokine Release IL-10
  EC50: > 1000 µM
[1]; read-out: EC50 Cytokine Release IL-12p40
  EC50: > 1000 µM
[1]; read-out: EC50 Cytokine Release IL-13
  EC50: > 1000 µM
[1]; read-out: EC50 Cytokine Release IP-10
  EC50: > 1000 µM
[1]; read-out: EC50 Cytokine Release MCP-1
  EC50: > 1000 µM
[1]; read-out: EC50 Cytokine Release MIP-1α
  EC50: > 1000 µM
[1]; read-out: EC50 Cytokine Release TNF-α
  EC50: > 1000 µM

## CS(=O)(=O)c1cccc(C[C@H](NC(=O)c2c(Cl)cc3c(c2Cl)CCN(C(=O)c2ccc4ccoc4c2)C3)C(=O)O)c1 [[^14C]-compound of Formula I]
[2]; [4]
  radioactivity concentration, eye: 18100 ng equivalents [^14C]-compound of Formula I/g
  radioactivity concentration, liver: 272 ng equivalents [^14C]-compound of Formula I/g
  radioactivity concentration, uveal tract: 9330 ng equivalents [^14C]-compound of Formula I/g
[2]; 0.5 hour postdose, topical ocular 1 mg/eye, male Sprague Dawley rats, above upper limit of quantification
  radioactivity concentration, esophageal contents: 399000 ng equivalents [^14C]-compound of Formula I/g
[2]; [5]
  radioactivity concentration, nasal turbinates: 352000 ng equivalents [^14C]-compound of Formula I/g
  radioactivity concentration, small intestinal contents: 349000 ng equivalents [^14C]-compound of Formula I/g
[2]; 2 hours postdose, topical ocular 1 mg/eye
  radioactivity level, eye lens: BLQ
[2]; [6]
  radioactivity concentration, cecum contents: 57600 ng equivalents [^14C]-compound of Formula I/g
  radioactivity concentration, large intestinal contents: 133000 ng equivalents [^14C]-compound of Formula I/g
[2]; 12 hours postdose, topical ocular 1 mg/eye
  radioactivity concentration, uveal tract: 610 ng equivalents [^14C]-compound of Formula I/g
[2]; [7]
  radioactivity concentration, cecum contents: 5870 ng equivalents [^14C]-compound of Formula I/g
  radioactivity concentration, large intestinal contents: 18000 ng equivalents [^14C]-compound of Formula I/g
[2]; IV administration 10 mg/kg
  excretion in feces, % of the administered radioactivity: ~95%
[2]; [8]
  decline of radioactivity concentration, esophageal contents: ~100 fold
  decline of radioactivity concentration, esophagus: approximately 50 fold
[2]; ocular administration 1 mg/eye
  excretion in feces, % of the administered radioactivity: approximately 60%
[2]; ocular or IV administration
  Urinary excretion, % of the administered radioactivity: up to 2%
[2]; rats, up to 168 hrs following topical ocular or IV dose
  metabolites in pooled plasma, urine and fecal homogenates: no metabolites were isolated
[3]; 0.5 hour after administration
  Concentration, Conjunctiva (bulbar): 31500 ng Equivalents [^14C]-compound of Formula I/g tissue
  Concentration, Conjunctiva (palpebral): 26300 ng Equivalents [^14C]-compound of Formula I/g tissue
  Concentration, Cornea: 17150 ng Equivalents [^14C]-compound of Formula I/g tissue
  Concentration, Iris-ciliary body: 17550 ng Equivalents [^14C]-compound of Formula I/g tissue
  Concentration, Lens: 38.8 ng Equivalents [^14C]-compound of Formula I/g tissue
  Concentration, Optic Nerve: 796 ng Equivalents [^14C]-compound of Formula I/g tissue
  Concentration, Retina and Choroid (with RPE): 510 ng Equivalents [^14C]-compound of Formula I/g tissue
  Concentration, Sclera: 2750 ng Equivalents [^14C]-compound of Formula I/g tissue
  Concentration, Vitreous Humor: 1330 ng Equivalents [^14C]-compound of Formula I/g tissue
  Concentration, Aqueous humor: 1770 ng Equivalents [^14C]-compound of Formula I/g tissue
[3]; 4.0 hours after administration
  Concentration, Conjunctiva (bulbar): 4480 ng Equivalents [^14C]-compound of Formula I/g tissue
  Concentration, Conjunctiva (palpebral): 21830 ng Equivalents [^14C]-compound of Formula I/g tissue
  Concentration, Cornea: 1346 ng Equivalents [^14C]-compound of Formula I/g tissue
  Concentration, Iris-ciliary body: 500 ng Equivalents [^14C]-compound of Formula I/g tissue
  Concentration, Lens: 9.69 ng Equivalents [^14C]-compound of Formula I/g tissue
  Concentration, Optic Nerve: 0 ng Equivalents [^14C]-compound of Formula I/g tissue
  Concentration, Retina and Choroid (with RPE): 46.7 ng Equivalents [^14C]-compound of Formula I/g tissue
  Concentration, Sclera: 387 ng Equivalents [^14C]-compound of Formula I/g tissue
  Concentration, Vitreous Humor: 183 ng Equivalents [^14C]-compound of Formula I/g tissue
  Concentration, Aqueous humor: 116 ng Equivalents [^14C]-compound of Formula I/g tissue
